Reference: patent US9751861B2, “N1-(3,3,3-trifluoro-2-hydroxo-2-methylpropionyl)-piperidine derivatives as inhibitors of pyruvate dehydrogenase kinase” (MERCK PATENT GMBH, priority 2013, dated 2017)

Legend:
human PDHK2 (12-407) = biological target: T1, human PDHK2 (12-407) (Homo sapiens, UniProt Q15119); test: Isothermal titration calorimetry (ITC) binding; conditions: 30° C., pH 7.5
T1 construct: The human PDHK2 (12-407) was produced in E. coli; His-tag (cleaved yes); made in house; host or cells: E. coli
Procedure: Isothermal Titration Calorimetry
ITC measurements were performed with a VP-ITC micro calorimeter (Microcal, LLC/GE Healthcare Bio-Sciences AB, Uppsala, Sweden). In general titrations were performed by titrating the protein (50 μM) to the test compound (5 μM) in 12 μl injections. All binding experiments were carried out at 30° C. In general the test compounds were diluted form DMSO stock solutions into the measurement buffer with a maximum final concentration of 1% DMSO. The measurement buffer was 20 mM HEPES, 135 mM KCl, 1 mM TCEP, 2 mM MgCl2, 15 mM NaH2PO4, pH 7.5. The human PDHK2 (12-407) was produced in E. coli as his-tagged protein and purified by affinity chromatography. The tag was removed by side specific proteolysis. Before titration the protein buffer was changed to the measurement buffer containing the same DMSO concentration as the test compound dilution. ITC data analysis was performed using Origin 7 calorimetry software from the same supplier. For most measurements a binding model of one binding site was assumed. According to the applied mathematical model it is possible to calculate the binding constant (KA), the observed binding enthalpy (ΔH^obs) as well as the stoichiometry (N) of the formed complex. Preceding analysis the raw data was corrected for the heats of dilution by extrapolating from the saturation value from the end of titration. In order to allow for direct comparison between the respective experimental series and protein preparations the protein concentration was corrected by referencing titrations to a well behaved standard inhibitor. The apparent stoichiometry values defined the fraction of binding competent protein and compensated for relative errors in protein concentration measurements. This corrected protein concentration was used to set up ITC experiment series with test compounds. Any deviations from ideal 1:1 stoichiometry observed here were attributed to errors in compound concentration. This nominal compound concentration was corrected as well to achieve 1:1 stoichiometry in the fit.

PDH-Elalpha (pSer300) = test: Cellular immunofluorescence assay in HEK293T cells; type: cell-based; conditions: Homo sapiens, HEK-293T, 5 hours incubation, anti-PDH-E1alpha pSer300 immunofluorescence, read-out: IC50 (cell data)
Procedure: Cellular Assay for Determination of Compound Activities
Compound activities were determined in a cellular immunofluorescence assay. Human HEK293T cells were seeded into black 384-well plates with clear bottom and grown overnight.
Next day, test compounds were added to the wells and the plates incubated for 5 hours. Following this, cells were fixed with formaldehyde, permeabilised and blocked. The primary antibody, Anti-PDH-Elalpha (pSer300), AP1064 (Merck Millipore) was added and incubated overnight in the plate wells. Next, cells were washed and the seconday antibody, Alexa Fluor 488, goat anti-rabbit ab (A-11008, Invitrogen) was added together with Hoechst 33258 (H3569, Invitrogen) and incubated for 1 hour in the plate wells. Finally, cells were washed and the plates were measured on the laser scanning cytometer acumen hci (TTpLabtech).
The raw data were normalized against a pharmacological inhibitor control and dose response curves were generated by plotting the percent effect values using the software package Genedata screener (Genedata).

PDHK2 = biological target: T2, PDHK2 (Homo sapiens, UniProt Q15119); test: Biochemical activity testing of PDHK2: PDC inactivation assay; conditions: human rec PDHK2, PDC from porcine heart, ATP 5 μM; read-out: IC50 PDHK2 (enzyme assay)
T2 construct: purchased Carna Bioscience
Excerpt: Biochemical Activity Testing of PDHK2: PDC Inactivation Assay
The biochemical activity assay for PDHK2 is based on the inactivation of PDC through phosphorylation by PDHK2. The assay is run in two steps: the enzymatic PDHK2 reaction in which isolated PDC is phosphorylated by PDHK2 with ATP as co-substrate and the PDC activity assay in which pyruvate and NAD are converted to acetyl-CoA and NADH. The PDC activity correlates to the increase in NADH and thereby is detectable directly via the increasing fluorescence signal (Exc 340 nm, Em 450 nm). Inhibition of PDHK2 results in a lower phosphorylation status and thereby a less decrease in activity of PDC and a stronger increase in NADH fluorescence signal.
The PDC inactivation assay is performed in Greiner 384-well microtiter plates and is used for high throughput screen. 4 μl of PDHK2 (human, rec, Carna Bioscience, 10 ng/μl-137 nM final concentration) and PDC (isolated from porcine heart, Sigma-Aldrich, 20 mU/ml final concentration) are incubated in the absence or presence of the test compound (10 dilution concentrations) for 30 min at room temperature in kinase buffer (15 mM potassium phosphate buffer, pH 7.0, 60 mM KCl, 1.5 mM DTT, 2.5 mM MgCl2, 0.0125% (w/v) BSA, 0.125% Pluronic F-68). The kinase reaction is started by the addition of 4 μl ATP substrate solution (fc 5 μM in kinase buffer). After 30 min incubation at 37° C. 40 μl of PDC reaction solution (100 mM Tris/HCl, pH 7.8, 0.5 mM EDTA, 1 mM MgCl2, 50 mM NaF, 0.25 mM Coenzyme A, 5 mM pyruvate, 1 mM NAD, 5 mM DTT, […] thiamine pyrophosphate) is added. The first fluorescence measurement is performed on a Perkin Elmer Envision (Exc 340 nm, Em 450 nm). The reaction is incubated for 45 min at room temperature. Afterwards a second fluorescence measurement is performed and the PDC activity is calculated by the difference between both measurements. As full value for the PDHK2 assay the inhibitor-free PDHK2 reaction is used. The pharmacological zero value used is DCA (Sigma-Aldrich) in a final concentration of 3 mM. The inhibitory values (IC50) were determined using either the program Symyx Assay Explorer® or Condosseo® from GeneData.

| Compound | Kd (human PDHK2 (12-407)) [nM] | IC50 (PDH-Elalpha (pSer300)) [nM] | IC50 (PDHK2) [nM] |
| --- | --- | --- | --- |
| C[C@@](O)(C(=O)N1CCC(c2ccnn2[C@H]2CC[C@H](O)CC2)CC1)C(F)(F)F [Compound A94, (R)-3,3,3-Trifluoro-2-hydroxy-1-[4-[2-(4-hydroxycyclohexyl)-2H-pyrazol-3-yl]-1-piperidyl]-2-methyl-propan-1-one] | < 300 | 3000 to 50000 | 300 to 3000 |
| CC(C)n1nccc1C1CCN(C(=O)[C@@](C)(O)C(F)(F)F)CC1 [Compound A36, (R)-1-[4-(2-Isopropyl-2H-pyrazol-3-yl)-piperidin-1-yl]-3,3,3-trifluoro-2-hydroxy-2-methyl-propan-1-one] | < 300 | 3000 to 50000 | 300 to 3000 |
| C[C@@](O)(C(=O)N1CCC(c2conc2-c2ccc(F)cc2)CC1)C(F)(F)F [Compound A129, (R)-3,3,3-Trifluoro-1-{^4-[3-(4-fluoro-phenyl)-isoxazol-4-yl]-piperidin-1-yl}-2-hydroxy-2-methyl-propan-1-one] | < 300 | 3000 to 50000 | 300 to 3000 |
| C[C@@](O)(C(=O)N1CCC(c2conc2-c2ccccc2)CC1)C(F)(F)F [Compound A128, (R)-3,3,3-Trifluoro-2-hydroxy-2-methyl-1-[4-(3-phenyl-isoxazol-4-yl)-piperidin-1-yl]-propan-1-one] | < 300 | 3000 to 50000 | 300 to 3000 |
| C[C@@](O)(C(=O)N1CCC(c2ccnn2CC(F)(F)F)CC1)C(F)(F)F [Compound A77, (R)-3,3,3-Trifluoro-2-hydroxy-2-methyl-1-{4-[2-(2,2,2-trifluoro-ethyl)-2H-pyrazol-3-yl]-piperidin-1-yl}-propan-1-one] | 300 to 3000 | 3000 to 50000 | 3000 to 50000 |
| CC1CN(C(=O)[C@@](C)(O)C(F)(F)F)CCC1c1ccnn1-c1ccc(F)cc1F (mixture of isomers) [Compound A31, (R)-1-{4-[2-(2,4-difluoro-phenyl)-2H-pyrazol-3-yl]-3-methyl-piperidin-1-yl}-3,3,3-trifluoro-2-hydroxy-2-methyl-propan-1-one] | < 300 | < 300 | < 300 |
| Cc1cc(C2CCN(C(=O)[C@@](C)(O)C(F)(F)F)CC2)n(-c2ccccc2)n1 [Compound A98, (R)-3,3,3-Trifluoro-2-hydroxy-2-methyl-1-[4-(5-methyl-2-phenyl-2H-pyrazol-3-yl)-piperidin-1-yl]-propan-1-one] | < 300 | 300 to 3000 | < 300 |
| C[C@@](O)(C(=O)N1CCC(n2c(-c3ccccc3F)n[nH]c2=O)CC1)C(F)(F)F [Compound A54, 5-(2-Fluoro-phenyl)-4-[1-((R)-3,3,3-trifluoro-2-hydroxy-2-methyl-propionyl)piperidin-4-yl]-2,4-dihydro-[1,2,4]triazol-3-one] | 300 to 3000 | 3000 to 50000 | 300 to 3000 |
| COc1ccc(-n2nccc2[C@H]2CCN(C(=O)[C@@](C)(O)C(F)(F)F)C[C@H]2C)cn1 [Compound A113, (R)-3,3,3-Trifluoro-1-{(3S,4S)-4-[2-(6-methoxy-pyridin-3-yl)-2H-pyrazol-3-yl]-3-methyl-piperidin-1-yl}-2-hydroxy-2-methyl-propan-1-one] | < 300 | < 300 | < 300 |

Next, values leading:

| Kd (human PDHK2 (12-407)) [nM] | IC50 (PDH-Elalpha (pSer300)) [nM] | IC50 (PDHK2) [nM] | Compound |
| --- | --- | --- | --- |
| < 300 | 3000 to 50000 | 300 to 3000 | C[C@@](O)(C(=O)N1CCC(c2ccnn2-c2ccc(C#N)cc2F)CC1)C(F)(F)F [Compound A91, 3-Fluoro-4-[5-[1-[(R)-3,3,3-trifuoro-2-hydroxy-2-methyl-propanoyl]-4-piperidyl]-2H-pyrazol-1-yl]benzonitrile] |
| < 300 | 300 to 3000 | 300 to 3000 | C[C@@](O)(C(=O)N1CCC(c2ccnn2-c2ccccc2)CC1)C(F)(F)F [Compound A25, (R)-3,3,3-Trifluoro-2-hydroxy-2-methyl-1-[4-(2-phenyl-2H-pyrazol-3-yl)piperidin-1-yl]-propan-1-one] |
| < 300 | 300 to 3000 | 300 to 3000 | C[C@@](O)(C(=O)N1CCC(c2cncn2-c2ccc(F)cc2F)CC1)C(F)(F)F [Compound A130, (R)-1-{4-[3-(2,4-Difluoro-phenyl)-3H-imidazol-4-yl]-piperidin-1-yl}-3,3,3-trifluoro-2-hydroxy-2-methyl-propan-1-one] |
| < 300 | 300 to 3000 | 300 to 3000 | COc1ccc(-n2nccc2C2CCN(C(=O)[C@@](C)(O)C(F)(F)F)CC2)cn1 [Compound A53, (R)-3,3,3-Trifluoro-2-hydroxy-1-{4-[2-(6-methoxy-pyridin-3-yl)-2H-pyrazol-3-yl]-piperidin-1-yl}-2-methyl-propan-1-one] |
| < 300 | 300 to 3000 | < 300 | Cc1ccc(-n2nccc2C2CCN(C(=O)[C@@](C)(O)C(F)(F)F)CC2)cc1 [Compound A1, (R)-3,3,3-trifluoro-2-hydroxy-2-methyl-1-[4-(2-p-tolyl-2H-pyrazol-3-yl)-piperidin-1-yl]-propan-1-one] |
| < 300 | 300 to 3000 | 300 to 3000 | Cc1cccc(-n2nccc2C2CCN(C(=O)[C@@](C)(O)C(F)(F)F)CC2)c1 [Compound A6, (R)-3,3,3-Trifluoro-2-hydroxy-2-methyl-1-[4-(2-m-tolyl-2H-pyrazol-3-yl)-piperidin-1-yl]-propan-1-one] |
| 300 to 3000 | 3000 to 50000 | 3000 to 50000 | C[C@@](O)(C(=O)N1CCC(c2ccn(-c3ccc(C(F)(F)F)cn3)n2)CC1)C(F)(F)F [Compound A102, (R)-3,3,3-Trifluoro-2-hydroxy-2-methyl-1-{4-[1-(5-trifluoromethyl-pyridin-2-yl)-1 H-pyrazol-3-yl]-piperidin-1-yl}-propan-1-one] |
| < 300 | < 300 | < 300 | C[C@@](O)(C(=O)N1CCC(c2ccnn2-c2cccc(Cl)c2F)CC1)C(F)(F)F [Compound A15, (R)-1-{4-[2-(3-Chloro-2-fluoro-phenyl)-2H-pyrazol-3-yl]-piperidin-1-yl}-3,3,3-trifluoro-2-hydroxy-2-methyl-propan-1-one] |
| < 300 | 3000 to 50000 | 300 to 3000 | C[C@@](O)(C(=O)N1CCC(c2ccnn2-c2ccc(F)cn2)CC1)C(F)(F)F [Compound A112, (2R)-1-[4-[2-(5-Fluoro-2-pyridyl)-2H-pyrazol-3-yl]-1-piperidyl]-3,3,3-trifluoro-2-hydroxy-2-methyl-propan-1-one] |
